“And” between values parts separate entries of the source, which are not always exact repeats. Equal entries are not always repeated. Toxic doses and inconclusive results are not listed. Rule as the data show it: active = T/C of 150% or more; inactive = T/C below 125%.
Tested on: L1210 leukemia ip in BDF1 mice, survival T/C
Assay: NCI In Vivo Anticancer Drug Screen. Data for tumor model L1210 Leukemia (intraperitoneal) in B6D2F1 (BDF1) mice
Conditions: endpoint: mean survival time, higher = longer survival
How it was run: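 Each compound was tested against a transplantable tumor grown in mice. The endpoint was survival, with treated animals benchmarked against vehicle controls as a simple ratio.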

[1] = dose: 100.0 mg/kg/injection, schedule: Q01DX001 (ip), vehicle: carboxymethylcellulose (CMC)
[2] = dose: 100.0 mg/kg/injection, schedule: Q01DX009 (ip), vehicle: Klucel (hydroxypropylcellulose) (HPC)
[3] = dose: 200.0 mg/kg/injection, schedule: Q01DX001 (ip), vehicle: carboxymethylcellulose (CMC)
[4] = dose: 200.0 mg/kg/injection, schedule: Q01DX009 (ip), vehicle: Klucel (hydroxypropylcellulose) (HPC)
[5] = dose: 200.0 mg/kg/injection, schedule: Q04DX003 (ip), vehicle: Klucel (hydroxypropylcellulose) (HPC)
[6] = dose: 400.0 mg/kg/injection, schedule: Q01DX001 (ip), vehicle: carboxymethylcellulose (CMC)
[7] = dose: 400.0 mg/kg/injection, schedule: Q01DX009 (ip), vehicle: Klucel (hydroxypropylcellulose) (HPC)
[8] = dose: 400.0 mg/kg/injection, schedule: Q04DX003 (ip), vehicle: Klucel (hydroxypropylcellulose) (HPC)
[9] = dose: 100.0 mg/kg/injection, schedule: Q04DX003 (ip), vehicle: saline with Tween-80
[10] = dose: 200.0 mg/kg/injection, schedule: Q04DX003 (ip), vehicle: saline with Tween-80
[11] = dose: 100.0 mg/kg/injection, schedule: Q04DX002 (ip), vehicle: Klucel (hydroxypropylcellulose) (HPC)
[12] = dose: 200.0 mg/kg/injection, schedule: Q04DX002 (ip), vehicle: Klucel (hydroxypropylcellulose) (HPC)
[13] = dose: 400.0 mg/kg/injection, schedule: Q04DX002 (ip), vehicle: Klucel (hydroxypropylcellulose) (HPC)
[14] = dose: 100.0 mg/kg/injection, schedule: Q01DX009 (ip), vehicle: saline with Tween-80
[15] = dose: 200.0 mg/kg/injection, schedule: Q01DX009 (ip), vehicle: saline with Tween-80
[16] = dose: 100.0 mg/kg/injection, schedule: Q04DX003 (ip), vehicle: saline
[17] = dose: 400.0 mg/kg/injection, schedule: Q01DX009 (ip), vehicle: saline with Tween-80
[18] = dose: 400.0 mg/kg/injection, schedule: Q04DX003 (ip), vehicle: saline with Tween-80
[19] = dose: 100.0 mg/kg/injection, schedule: Q01DX001 (ip), vehicle: saline
[20] = dose: 200.0 mg/kg/injection, schedule: Q01DX001 (ip), vehicle: saline
[21] = dose: 400.0 mg/kg/injection, schedule: Q01DX001 (ip), vehicle: saline
[22] = dose: 100.0 mg/kg/injection, schedule: Q04DX003 (ip), vehicle: Klucel (hydroxypropylcellulose) (HPC)

Measured: T/C

COc1cc(OC)c(OC)cc1/C=C\c1ccnc2ccccc12
inactive: [1] 105 % of control | [2] 98 % of control | [3] 100 % of control | [4] 108 % of control | [5] 108 % of control | [6] 109 % of control | [7] 114 % of control | [8] 108 % of control | dose: 800.0 mg/kg/injection, schedule: Q01DX009 (ip), vehicle: Klucel (hydroxypropylcellulose) (HPC) 112 % of control | dose: 800.0 mg/kg/injection, schedule: Q04DX003 (ip), vehicle: Klucel (hydroxypropylcellulose) (HPC) 110 % of control | dose: 1600.0 mg/kg/injection, schedule: Q04DX003 (ip), vehicle: Klucel (hydroxypropylcellulose) (HPC) 108 % of control

c1ccc(NC(Nc2ccccn2)c2ccncc2)nc1
inactive: [9] 104 % of control | [10] 111 % of control

O=C1c2cccc3cccc(c23)C(=O)N1CCCN1C(=O)c2cccc3cccc(c23)C1=O
inactive: [11] 88 % of control | [12] 98 % of control

NS(=O)(=O)c1ccc(NC(=O)Nc2cccc(Cl)c2Cl)cc1
inactive: [2] 101 % of control | [4] 101 % of control | [7] 95 % of control

COc1ccc(C(=O)/C=C\c2ccc(Cl)c(Cl)c2)cc1
inactive: [11] 100 % of control | [12] 97 % of control | [13] 107 % of control

O=C(O)c1ccc(C(=O)/C=N/O)nc1
inactive: [2] 90 % of control | [4] 93 % of control | [7] 97 % of control

CC(C)(C)Sc1ccncc1
inactive: [14] 98 % of control | [15] 88 % of control

O=C/C=C/c1cc([N+](=O)[O-])ccc1Cl
inactive: [11] 100 % of control | [12] 96 % of control | [13] 100 % of control

OC1(C2(O)CCCCC2)CCCCC1
inactive: dose: 100.0 mg/kg/injection, schedule: Q04DX002 (ip), vehicle: gum acacia 101 % of control | dose: 200.0 mg/kg/injection, schedule: Q04DX002 (ip), vehicle: gum acacia 104 % of control | dose: 400.0 mg/kg/injection, schedule: Q04DX002 (ip), vehicle: gum acacia 96 % of control

O=[N+]([O-])c1ccc(C#[C][Hg][C]#Cc2ccc([N+](=O)[O-])cc2)cc1
inactive: [16] 95 % of control | dose: 200.0 mg/kg/injection, schedule: Q04DX003 (ip), vehicle: saline 91 % of control | dose: 400.0 mg/kg/injection, schedule: Q04DX003 (ip), vehicle: saline 98 % of control

S=c1cc(-c2ccco2)ss1
inactive: [14] 93 % of control | [9] 90 % of control | [15] 91 % of control | [10] 95 % of control | [17] 90 % of control | [18] 96 % of control

COc1ccc(OC)c(CC(C)O)c1 (stereo unspecified)
inactive: [1] 101 % of control | [3] 101 % of control | [6] 98 % of control

O=C1Nc2ccccc2C1=Nc1ccccc1-c1ccccc1
inactive: [19] 91 % of control | [20] 92 % of control | [21] 96 % of control

CC(=O)c1ccc(Cl)c([N+](=O)[O-])c1
inactive: dose: 100.0 mg/kg/injection, schedule: Q01DX001 (ip), vehicle: Klucel (hydroxypropylcellulose) (HPC) 91 % of control | [2] 105 % of control | dose: 200.0 mg/kg/injection, schedule: Q01DX001 (ip), vehicle: Klucel (hydroxypropylcellulose) (HPC) 97 % of control | [4] 100 % of control | dose: 400.0 mg/kg/injection, schedule: Q01DX001 (ip), vehicle: Klucel (hydroxypropylcellulose) (HPC) 96 % of control

Cc1cc(-c2cc(C)sc2C)c(C)s1
inactive: [14] 87 % of control | [9] 96 % of control | [15] 92 % of control | [10] 94 % of control | [17] 94 % of control | [18] 96 % of control

O=C(CN1CCOCC1)N1CCN(C(=O)CN2CCOCC2)CC1
inactive: dose: 50.0 mg/kg/injection, schedule: Q01DX001 (ip), vehicle: carboxymethylcellulose (CMC) 92 % of control | [1] 97 % of control | [3] 95 % of control | [6] 101 % of control

CC(=O)OC1COC(n2cnc3c(N)ncnc32)C(OC(C)=O)C1OC(C)=O (stereo unspecified)
inactive: dose: 50.0 mg/kg/injection, schedule: Q01DX001 (ip), vehicle: saline 100 % of control | [19] 97 % of control | [20] 100 % of control

Clc1cc(/C=C/c2ccccc2)c2ccccc2n1
inactive: [19] 105 % of control | [20] 105 % of control | [21] 100 % of control

COc1ccc(/C=C2\N=C(c3cccc(Cl)c3)OC2=O)cc1OC
inactive: [14] 105 % of control | [11] 89 % of control | [15] 97 % of control | [12] 92 % of control | [17] 105 % of control | [13] 86 % of control

CCCCCC(=O)C#Cc1ccccc1
inactive: dose: 6.25 mg/kg/injection, schedule: Q01DX009 (ip), vehicle: other 90 % of control | dose: 12.5 mg/kg/injection, schedule: Q01DX009 (ip), vehicle: other 95 % of control | dose: 25.0 mg/kg/injection, schedule: Q01DX009 (ip), vehicle: other 94 % of control and 96 % of control | dose: 50.0 mg/kg/injection, schedule: Q01DX009 (ip), vehicle: other 91 % of control | dose: 100.0 mg/kg/injection, schedule: Q01DX009 (ip), vehicle: other 93 % of control and 86 % of control

O=C(Nc1ccc(NC(=O)Nc2cc(C(=O)Nc3ccc(C4=NCCN4)cc3)ccc2C(=O)Nc2ccc(C3=NCCN3)cc2)cc1)Nc1cc(C(=O)Nc2ccc(C3=NCCN3)cc2)ccc1C(=O)Nc1ccc(C2=NCCN2)cc1
inactive: dose: 100.0 mg/kg/injection, schedule: Q01DX Z (oral), vehicle: saline 93 % of control | dose: 120.0 mg/kg/injection, schedule: Q01DX Z (ip), vehicle: saline 120 % of control | dose: 200.0 mg/kg/injection, schedule: Q01DX Z (oral), vehicle: saline 98 % of control | dose: 400.0 mg/kg/injection, schedule: Q01DX Z (oral), vehicle: saline 101 % of control

O=C(CCCl)NC(Cc1ccccc1)c1ccccc1 (stereo unspecified)
inactive: [2] 102 % of control | [22] 96 % of control | [4] 92 % of control | [5] 98 % of control | [7] 92 % of control | [8] 95 % of control

CCCCCCCCCCCCSCCCN
inactive: dose: 12.5 mg/kg/injection, schedule: Q04DX003 (ip), vehicle: saline with Tween-80 96 % of control | dose: 25.0 mg/kg/injection, schedule: Q04DX003 (ip), vehicle: saline with Tween-80 93 % of control | dose: 50.0 mg/kg/injection, schedule: Q04DX003 (ip), vehicle: saline with Tween-80 96 % of control

Cc1ccc(COc2ccc(Cl)cc2Cn2ccnc2)cc1
inactive: dose: 100.0 mg/kg/injection, schedule: Q01DX009 (ip), vehicle: saline 102 % of control

CC#CC(C)=O
inactive: dose: 25.0 mg/kg/injection, schedule: Q04DX003 (ip), vehicle: saline 100 % of control | dose: 50.0 mg/kg/injection, schedule: Q04DX003 (ip), vehicle: saline 92 % of control | [16] 100 % of control

CCCC(C)(C)SSC(C)(C)CCC
inactive: [14] 98 % of control | [9] 103 % of control | [15] 96 % of control | [10] 110 % of control | [18] 117 % of control

COc1ccc(/C(=N/Nc2ccccc2)C(C)C(O)(C(F)(F)F)C(F)(F)F)cc1 (stereo unspecified)
inactive: dose: 50.0 mg/kg/injection, schedule: Q01DX009 (ip), vehicle: Klucel (hydroxypropylcellulose) (HPC) 91 % of control | [2] 92 % of control | [22] 98 % of control | [4] 89 % of control | [5] 90 % of control

CCCCCCCCCCCCCC=C(C)C
inactive: dose: 100.0 mg/kg/injection, schedule: Q01DX001 (ip), vehicle: saline with Tween-80 94 % of control | dose: 200.0 mg/kg/injection, schedule: Q01DX001 (ip), vehicle: saline with Tween-80 94 % of control | dose: 400.0 mg/kg/injection, schedule: Q01DX001 (ip), vehicle: saline with Tween-80 87 % of control

Cc1c(C#N)oc2cccc(O)c12
inactive: [2] 100 % of control | [11] 109 % of control | [4] 100 % of control | [12] 109 % of control | [7] 96 % of control | [13] 102 % of control

N#CCCN(C(=O)Nc1cccc(Cl)c1)C1CCCCC1
inactive: [2] 103 % of control | [4] 90 % of control | [7] 97 % of control

CCOC(=O)c1ccccc1N(O)C(=O)NC12CC3CC(CC(C3)C1)C2
inactive: [9] 94 % of control | [10] 94 % of control | [18] 94 % of control
